Measured values: ChEMBL document CHEMBL1130630, “Structure-based design of peptidomimetic ligands of the Grb2-SH2 domain” (Bioorg Med Chem Lett, 1998)
Square brackets hold non-standard residues; d marks the D form. Peptide text beside a SMILES is read from it. pY = N[C@@H](Cc1ccc(OP(=O)(O)O)cc1)C(=O)O

target: Growth factor receptor-bound protein 2 (Homo sapiens, UniProt P62993); test: Inhibition of Growth factor receptor bound protein 2 SH2 domain binding to phospho-EGFR by ELISA

| Structure (SMILES) | IC50 [µM] |
| --- | --- |
| CC(=O)N[C@@H](Cc1ccc(OP(=O)(O)O)cc1)C(=O)NCc1cccc(NC(N)=O)c1 | 48.7 |
| CC(=O)N[C@@H](Cc1ccc(OP(=O)(O)O)cc1)C(=O)NCC(=O)N[C@@H](CC(N)=O)C(N)=O (Ac-[pY]-Gly-Asn-NH2) | 67 |
| CC(=O)N[C@@H](Cc1ccc(OP(=O)(O)O)cc1)C(=O)N[C@H](C(=O)N[C@@H](CC(N)=O)C(N)=O)C(C)C (Ac-[pY]-Val-Asn-NH2) | 4.32 |

Second part, the compound after the results:

| IC50 [µM] | Structure (SMILES) |
| --- | --- |
| 6.5 | CC(=O)N[C@@H](Cc1ccc(OP(=O)(O)O)cc1)C(=O)N[C@@H](CCC(N)=O)c1cccc(NC(N)=O)c1 |
| 6.19 | CC(=O)N[C@@H](Cc1ccc(OP(=O)(O)O)cc1)C(=O)N[C@H](c1cccc(NC(N)=O)c1)C(C)C |
| 5.44 | CC(=O)N[C@@H](Cc1ccc(OP(=O)(O)O)cc1)C(=O)N[C@@H](CCC(N)=O)C(=O)N[C@@H](CC(N)=O)C(N)=O (Ac-[pY]-Gln-Asn-NH2) |
